# Experiments:
# [1] = Volume of distribution at steady state in Sprague-Dawley rat at 10 mg/kg, iv administered as single dose measured upto 24 hrs by LC-MS/MS analysis; type: ADME, organism-based; conditions: in vivo, read-out: Vdss
# [2] = AUC (0 to infinity) in Sprague-Dawley rat at 10 mg/kg, po administered as single dose measured upto 24 hrs by LC-MS/MS analysis; type: ADME, organism-based; parameters: dose 10 mg/kg, time < 24 hrs, route po; conditions: in vivo
# [3] = Elimination half life in Sprague-Dawley rat at 10 mg/kg, iv administered as single dose measured upto 24 hrs by LC-MS/MS analysis; type: ADME, organism-based; conditions: in vivo, read-out: beta t1/2 (converted)
# in vivo [4] = conditions: Sprague-Dawley, rat, kidney/plasma, po, 10 mg/kg
# in vivo [5] = conditions: Sprague-Dawley, rat, liver/plasma, po, 10 mg/kg
# [6] = Metabolic stability in mouse hepatocyte assessed as parent compound remaining at 10 uM measured after 4 hrs by LC-MS/MS analysis; type: ADME, cell-based; conditions: hepatocytes, read-out: Stability
# [7] = Tmax in Sprague-Dawley rat at 10 mg/kg, po administered as single dose measured upto 24 hrs by LC-MS/MS analysis; type: ADME, organism-based; conditions: in vivo
# [8] = Drug metabolism in mouse hepatocytes assessed as glucuronidation metabolite at 10 uM measured upto 240 mins by LC-MS/MS analysis; type: ADME, cell-based, Hepatocyte; conditions: 4 h
# Cytochrome P450 1A2 = biological target: T1, Cytochrome P450 1A2 (Homo sapiens, UniProt P05177); assay: Time dependent inhibition of CYP1A2 in human liver microsomes at 10 uM preincubated for 30 mins followed by substrate addition and measured after 15 mins in presence of NADPH by LC-MS/MS analysis; type: ADME, Microsome
# T1 sequence (P05177 whole entry): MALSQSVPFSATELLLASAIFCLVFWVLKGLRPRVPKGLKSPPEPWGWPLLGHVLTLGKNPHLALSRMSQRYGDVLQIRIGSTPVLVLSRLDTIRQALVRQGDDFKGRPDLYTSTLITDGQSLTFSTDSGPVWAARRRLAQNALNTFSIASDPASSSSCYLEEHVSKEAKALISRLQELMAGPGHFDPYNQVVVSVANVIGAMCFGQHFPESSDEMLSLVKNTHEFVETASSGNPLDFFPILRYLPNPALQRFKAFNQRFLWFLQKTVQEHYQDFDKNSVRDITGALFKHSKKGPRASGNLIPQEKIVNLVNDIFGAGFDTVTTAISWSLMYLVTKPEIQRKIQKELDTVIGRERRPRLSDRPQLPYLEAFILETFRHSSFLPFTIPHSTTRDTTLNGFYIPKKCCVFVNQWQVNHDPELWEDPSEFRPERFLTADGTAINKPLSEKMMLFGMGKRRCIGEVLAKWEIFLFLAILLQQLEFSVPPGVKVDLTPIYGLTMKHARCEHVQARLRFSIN
# Cytochrome P450 3A4 = Cytochrome P450 3A4 (Homo sapiens, UniProt P08684); assay: Time dependent inhibition of CYP3A4 in human liver microsomes at 10 uM preincubated for 30 mins followed by substrate addition and measured after 15 mins in presence of NADPH by LC-MS/MS analysis; type: ADME, Microsome
# physchem [9] = assay: physchem
# in vitro [10] = conditions: human, plasma
# [11] = Oral bioavailability in Beagle dog at 5 mg/kg administered as single dose measured upto 24 hrs by LC-MS/MS analysis; type: ADME, organism-based, Canis lupus familiaris; conditions: in vivo
# in vivo [12] = conditions: Sprague-Dawley, rat, spleen, po, 10 mg/kg
# HepG2 = assay: cells; conditions: Homo sapiens, HepG2, 3 h
# [13] = AUC (0 to t) in Sprague-Dawley rat at 10 mg/kg, iv administered as single dose measured upto 24 hrs by LC-MS/MS analysis; type: ADME, organism-based; parameters: dose 10 mg/kg, time < 24 hrs, route iv; conditions: in vivo
# [14] = Metabolic stability in dog hepatocyte assessed as parent compound remaining at 10 uM measured after 4 hrs by LC-MS/MS analysis; type: ADME, cell-based, Canis lupus familiaris; conditions: hepatocytes, read-out: Stability
# [15] = Clearance in Beagle dog at 1 mg/kg, iv administered as single dose measured upto 24 hrs by LC-MS/MS analysis; type: ADME, organism-based, Canis lupus familiaris; conditions: in vivo
# [16] = Drug metabolism in human hepatocytes assessed as oxidation/hydrogenation/decarboxylation metabolite at 10 uM measured upto 240 mins by LC-MS/MS analysis; type: ADME, cell-based, Hepatocyte; conditions: 4 h
# physchem [17] = conditions: buffer, pH 7.4
# in vitro [18] = conditions: dog, liver microsomes
# in vitro [19] = conditions: mouse, liver microsomes
# in vitro [20] = conditions: dog, hepatocytes
# in vitro [21] = conditions: human, Caco-2
# Cytochrome P450 2C9 = Cytochrome P450 2C9 (Homo sapiens, UniProt P11712); assay: Time dependent inhibition of CYP2C9 in human liver microsomes at 10 uM preincubated for 30 mins followed by substrate addition and measured after 15 mins in presence of NADPH by LC-MS/MS analysis; type: ADME, Microsome
# Cytochrome P450 2D6 = Cytochrome P450 2D6 (Homo sapiens, UniProt P10635)
# [22] = Cmax in Sprague-Dawley rat at 10 mg/kg, po administered as single dose measured upto 24 hrs by LC-MS/MS analysis; type: ADME, organism-based; parameters: time < 24 hrs, dose 10 mg/kg, route po; conditions: in vivo
# in vivo [23] = conditions: Sprague-Dawley, rat, heart, po, 10 mg/kg
# [24] = AUC (0 to t) in Sprague-Dawley rat at 10 mg/kg, po administered as single dose measured upto 24 hrs by LC-MS/MS analysis; type: ADME, organism-based; parameters: time < 24 hrs, dose 10 mg/kg, route po; conditions: in vivo
# in vivo [25] = conditions: Sprague-Dawley, rat, lung, po, 10 mg/kg
# [26] = Cmax in Beagle dog at 5 mg/kg, po administered as single dose measured upto 24 hrs by LC-MS/MS analysis; type: ADME, organism-based, Canis lupus familiaris; parameters: time < 24 hrs, dose 5 mg/kg, route po; conditions: in vivo
# [27] = Clearance in Sprague-Dawley rat at 10 mg/kg, iv administered as single dose measured upto 24 hrs by LC-MS/MS analysis; type: ADME, organism-based; conditions: in vivo
# [28] = biological target: Sodium channel protein type 5 subunit alpha (Homo sapiens, UniProt Q14524)
# in vitro [29] = conditions: rhesus monkey, liver microsomes
# in vivo [30] = conditions: Sprague-Dawley, rat, plasma, po, 10 mg/kg
# [31] = Elimination half life in Beagle dog at 1 mg/kg, iv administered as single dose measured upto 24 hrs by LC-MS/MS analysis; type: ADME, organism-based, Canis lupus familiaris; conditions: in vivo, read-out: beta t1/2 (converted)
# Cytochrome P450 2C19 = Cytochrome P450 2C19 (Homo sapiens, UniProt P33261)
# [32] = Drug metabolism in monkey hepatocytes assessed as oxidation/hydrogenation/decarboxylation metabolite at 10 uM measured upto 240 mins by LC-MS/MS analysis; type: ADME, cell-based, Macaca mulatta, Hepatocyte; conditions: rhesus monkey, 4 h
# Cytochrome P450 2D6, sequence (P10635 whole entry): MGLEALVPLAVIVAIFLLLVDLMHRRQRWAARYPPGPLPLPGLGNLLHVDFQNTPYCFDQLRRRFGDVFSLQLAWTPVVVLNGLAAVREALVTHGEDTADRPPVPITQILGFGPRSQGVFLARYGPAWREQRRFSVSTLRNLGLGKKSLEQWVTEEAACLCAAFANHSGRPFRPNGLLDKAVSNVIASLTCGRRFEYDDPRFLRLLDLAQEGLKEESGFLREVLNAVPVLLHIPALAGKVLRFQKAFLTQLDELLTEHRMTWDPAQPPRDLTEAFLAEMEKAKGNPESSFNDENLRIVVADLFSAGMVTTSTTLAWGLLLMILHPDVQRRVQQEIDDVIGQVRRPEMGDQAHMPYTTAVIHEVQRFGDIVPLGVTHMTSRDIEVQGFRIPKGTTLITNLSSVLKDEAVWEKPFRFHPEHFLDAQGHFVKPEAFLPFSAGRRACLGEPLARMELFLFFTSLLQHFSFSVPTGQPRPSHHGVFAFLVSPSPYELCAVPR
# Cytochrome P450 3A4, sequence (P08684 whole entry): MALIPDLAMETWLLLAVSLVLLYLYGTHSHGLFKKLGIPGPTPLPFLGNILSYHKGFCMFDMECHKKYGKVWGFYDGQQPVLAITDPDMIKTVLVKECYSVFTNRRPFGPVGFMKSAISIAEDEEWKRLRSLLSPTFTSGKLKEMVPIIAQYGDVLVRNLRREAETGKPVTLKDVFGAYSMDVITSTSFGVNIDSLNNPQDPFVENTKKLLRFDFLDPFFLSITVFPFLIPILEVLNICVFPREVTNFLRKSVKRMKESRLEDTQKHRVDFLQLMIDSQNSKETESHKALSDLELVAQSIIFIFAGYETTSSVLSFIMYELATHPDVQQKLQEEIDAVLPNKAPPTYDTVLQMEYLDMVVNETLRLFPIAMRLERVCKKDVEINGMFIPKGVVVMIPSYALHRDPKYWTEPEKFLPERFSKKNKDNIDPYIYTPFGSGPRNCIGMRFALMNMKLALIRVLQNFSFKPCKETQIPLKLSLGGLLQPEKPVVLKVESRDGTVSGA
# Cytochrome P450 2C19, sequence (P33261 whole entry): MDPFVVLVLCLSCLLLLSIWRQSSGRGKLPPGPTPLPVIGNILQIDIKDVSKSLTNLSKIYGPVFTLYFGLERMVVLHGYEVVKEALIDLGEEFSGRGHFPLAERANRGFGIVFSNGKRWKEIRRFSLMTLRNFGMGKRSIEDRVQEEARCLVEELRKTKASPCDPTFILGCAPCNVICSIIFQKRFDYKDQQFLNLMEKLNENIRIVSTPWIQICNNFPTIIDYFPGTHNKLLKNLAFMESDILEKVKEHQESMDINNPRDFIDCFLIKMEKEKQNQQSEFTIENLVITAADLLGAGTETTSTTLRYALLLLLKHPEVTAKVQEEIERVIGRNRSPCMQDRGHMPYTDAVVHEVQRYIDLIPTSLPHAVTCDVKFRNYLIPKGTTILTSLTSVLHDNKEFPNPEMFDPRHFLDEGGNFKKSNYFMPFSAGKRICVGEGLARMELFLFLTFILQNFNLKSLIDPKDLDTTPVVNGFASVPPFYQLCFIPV
# Sodium channel protein type 5 subunit alpha, sequence (Q14524 whole entry): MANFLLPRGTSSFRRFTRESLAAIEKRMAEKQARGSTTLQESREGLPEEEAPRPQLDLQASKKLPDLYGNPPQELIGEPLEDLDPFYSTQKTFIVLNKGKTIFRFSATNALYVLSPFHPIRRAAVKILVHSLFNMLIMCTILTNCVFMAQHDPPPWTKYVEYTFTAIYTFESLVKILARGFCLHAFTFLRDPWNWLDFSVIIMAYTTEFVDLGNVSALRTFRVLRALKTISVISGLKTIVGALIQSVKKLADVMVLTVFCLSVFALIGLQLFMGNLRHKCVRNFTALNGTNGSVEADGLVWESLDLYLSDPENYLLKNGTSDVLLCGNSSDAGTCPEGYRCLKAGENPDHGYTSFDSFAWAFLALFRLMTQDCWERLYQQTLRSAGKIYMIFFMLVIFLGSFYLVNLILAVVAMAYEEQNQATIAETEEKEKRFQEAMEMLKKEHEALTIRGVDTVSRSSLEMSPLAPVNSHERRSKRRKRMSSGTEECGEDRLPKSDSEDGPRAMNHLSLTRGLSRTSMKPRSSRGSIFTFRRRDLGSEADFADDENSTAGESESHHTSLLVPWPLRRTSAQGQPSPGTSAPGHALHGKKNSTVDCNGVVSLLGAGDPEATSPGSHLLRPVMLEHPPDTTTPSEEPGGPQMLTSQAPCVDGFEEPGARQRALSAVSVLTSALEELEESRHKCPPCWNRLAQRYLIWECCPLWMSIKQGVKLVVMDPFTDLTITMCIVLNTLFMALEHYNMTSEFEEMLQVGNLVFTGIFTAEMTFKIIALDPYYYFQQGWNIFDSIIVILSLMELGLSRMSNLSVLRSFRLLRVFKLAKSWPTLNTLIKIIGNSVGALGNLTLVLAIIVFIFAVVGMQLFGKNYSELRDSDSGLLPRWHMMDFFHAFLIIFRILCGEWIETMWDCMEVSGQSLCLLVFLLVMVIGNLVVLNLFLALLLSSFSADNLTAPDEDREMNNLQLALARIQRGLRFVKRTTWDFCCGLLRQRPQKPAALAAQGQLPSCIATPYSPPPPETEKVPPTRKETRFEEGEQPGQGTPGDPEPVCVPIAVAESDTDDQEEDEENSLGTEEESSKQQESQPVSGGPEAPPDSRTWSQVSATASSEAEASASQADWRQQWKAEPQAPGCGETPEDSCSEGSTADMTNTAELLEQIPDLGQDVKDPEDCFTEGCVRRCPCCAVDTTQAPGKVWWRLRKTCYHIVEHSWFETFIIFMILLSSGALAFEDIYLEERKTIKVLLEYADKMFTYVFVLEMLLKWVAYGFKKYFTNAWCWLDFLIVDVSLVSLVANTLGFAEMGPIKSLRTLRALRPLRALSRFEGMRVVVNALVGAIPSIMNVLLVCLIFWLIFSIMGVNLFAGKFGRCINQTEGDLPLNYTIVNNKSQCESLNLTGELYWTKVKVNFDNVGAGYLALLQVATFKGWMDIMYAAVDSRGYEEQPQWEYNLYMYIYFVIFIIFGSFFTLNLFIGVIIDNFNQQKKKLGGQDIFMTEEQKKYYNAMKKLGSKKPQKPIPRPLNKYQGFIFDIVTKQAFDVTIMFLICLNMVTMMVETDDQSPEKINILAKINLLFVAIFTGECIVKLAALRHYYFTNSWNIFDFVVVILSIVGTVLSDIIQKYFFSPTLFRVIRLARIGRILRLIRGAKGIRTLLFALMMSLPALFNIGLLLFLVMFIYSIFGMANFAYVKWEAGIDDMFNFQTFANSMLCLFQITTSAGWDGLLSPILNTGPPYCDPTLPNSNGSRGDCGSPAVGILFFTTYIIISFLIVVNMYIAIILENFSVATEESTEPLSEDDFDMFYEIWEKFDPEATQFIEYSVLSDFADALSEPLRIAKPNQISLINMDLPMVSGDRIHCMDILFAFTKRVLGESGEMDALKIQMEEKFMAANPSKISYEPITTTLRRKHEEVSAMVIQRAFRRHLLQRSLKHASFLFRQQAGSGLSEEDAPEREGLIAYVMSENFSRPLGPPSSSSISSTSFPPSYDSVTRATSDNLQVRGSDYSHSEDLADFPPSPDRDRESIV
# Cytochrome P450 2C9, sequence (P11712 whole entry): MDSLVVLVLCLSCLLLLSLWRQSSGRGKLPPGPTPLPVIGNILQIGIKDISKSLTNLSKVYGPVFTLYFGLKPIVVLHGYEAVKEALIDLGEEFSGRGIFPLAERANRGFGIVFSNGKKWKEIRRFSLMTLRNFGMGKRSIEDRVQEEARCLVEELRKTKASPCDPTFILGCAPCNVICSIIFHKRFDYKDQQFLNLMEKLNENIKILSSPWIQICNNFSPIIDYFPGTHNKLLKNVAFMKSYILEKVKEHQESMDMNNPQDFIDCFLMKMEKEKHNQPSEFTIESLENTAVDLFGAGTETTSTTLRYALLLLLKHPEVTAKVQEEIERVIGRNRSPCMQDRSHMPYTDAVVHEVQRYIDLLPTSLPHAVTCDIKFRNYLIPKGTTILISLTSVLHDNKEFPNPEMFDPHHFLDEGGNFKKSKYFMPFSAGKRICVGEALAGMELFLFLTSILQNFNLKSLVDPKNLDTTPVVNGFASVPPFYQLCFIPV
structure (smiles),measurement,setting,value
C[C@H]1CCN1c1nc(N2CC[C@H](CCC(=O)O)C2)c2c(n1)C(F)(F)CC2,Vd,[1],0.89 L/kg
same,AUC,[2],44400 ng·h/mL
same,half-life,[3],349 min
same,Kp at 24 h,in vivo [4],2.2
same,Kp at 24 h,in vivo [5],9.9
same,"remaining at 4 h, 10 µM",[6],96.6%
same,Tmax,[7],2.33 h
same,Drug metabolism,[8],Metabolite_Notdetected
same,IC50,Cytochrome P450 1A2,> 10 µM
same,IC50,Cytochrome P450 3A4,> 10 µM
same,solubility kinetic,physchem [9],> 1000 µM
same,fraction unbound,in vitro [10],0.089
same,bioavailability,[11],122%
same,concentration at 24 h,in vivo [12],1140 ng/g
same,IC50,HepG2,196 nM
same,AUCt,[13],73000 ng·h/mL
same,"remaining at 4 h, 10 µM",[14],97.8%
same,clearance,[15],3.06 mL/min/kg
same,Drug metabolism,[16],Metabolite_Notdetected
same,logD,physchem [17],0.14
same,"microsomal CLint at 2 h, 1 µM",in vitro [18],< 6.4 µL/min/mg
same,"microsomal CLint at 2 h, 1 µM",in vitro [19],8 µL/min/mg
same,"hepatocyte CLint at 2 h, 1 µM",in vitro [20],< 0.96 µL/min/1e6 cells
same,efflux ratio,in vitro [21],7.45
same,IC50,Cytochrome P450 2C9,> 10 µM
same,IC50,Cytochrome P450 2D6,> 30 µM
same,Cmax,[22],4900 ng/mL
same,concentration at 24 h,in vivo [23],1490 ng/g
same,AUCt,[24],39900 ng·h/mL
same,concentration at 24 h,in vivo [25],620 ng/g
same,Cmax,[26],10100 ng/mL
same,clearance,[27],2.52 mL/min/kg
same,IC50,[28],> 30 µM
same,"microsomal CLint at 2 h, 1 µM",in vitro [29],10.2 µL/min/mg
same,concentration at 24 h,in vivo [30],5080 ng/mL
same,half-life,[31],306 min
same,IC50,Cytochrome P450 2C19,> 30 µM
same,Drug metabolism,[32],Metabolite_Notdetected
